Experimental data published in article PMC6272992, “Synthesis and Cytotoxic Effect of Some Novel 1,2-Dihydropyridin-3-carbonitrile and Nicotinonitrile Derivatives” (Molecules, 2015).
Values after ≈ are worked out from the molar mass of the structure shown.

Assays:
[1] = system: WI 38 (normal fibroblast cells); assay: SRB cell growth assay, normal cells WI 38; type: cell-based, human; conditions: Homo sapiens, 48 h exposure, non-cytotoxic = IC50 > 100 μg/mL
Experimental: (§1) The in vitro cytotoxic activity the newly synthesized compounds against human breast cell line (MCF7), non-small cell lung cancer NCI-H460, CNS cancer SF-268 and WI 38 (normal fibroblast cells) were evaluated using doxorubicin as the reference drug, according to the method reported by Skehan et al..
(§2) The newly synthesized compounds were evaluated in vitro against three human cancer cell lines; which are MCF-7 (breast adenocarcinoma), NCI-H460 (non-small cell lung cancer) and SF-268 (CNS cancer), and WI 38 (normal fibroblast cells) were used in this study. MCF-7 was obtained from the European Collection of Cell Cultures (ECACC, Salisbury, UK) but NCI-H460, SF-268 and WI 38 were kindly provided by the National Cancer Institute (NCI, Cairo, Egypt). They grow as monolayers routinely maintained in RPMI-1640 medium supplemented with 5% heat inactivated fetal bovine serum (FBS), 2 mM glutamine and antibiotics (penicillin 100 U/mL, streptomycin 100 µg/mL), at 37 °C in a humidified atmosphere containing 5% CO2. Exponentially growing cells were obtained by plating 1.5 × 10^5 cells/mL for MCF-7 and SF-268, and 0.75 × 10^4 cells/mL for NCI-H460 followed by 24 h of incubation. The effect of the vehicle solvent (DMSO) on the growth of these cell lines was evaluated in all experiments by exposing untreated control cells to the maximum concentration (0.5%) of DMSO used in each assay.
(§3) The effect of compounds on the in vitro growth of human tumor cell lines were evaluated according to the procedure adopted by the National Cancer Institute (NCI, […], USA) in the “In vitro Anticancer Drug Discovery Screen” that uses the protein-binding dye sulforhodamine B (SRB) to assess cell growth. In the assay protocol, all cells were incubated at 37 °C under humidified atmosphere containing 5% CO2. Briefly, exponentially cells growing in 96-well plates were then exposed for 48 h to five serial concentrations of each compound, starting from a maximum concentration of 150 μg/mL. Following this exposure period, adherent cells were fixed, washed and stained. The bound stain was solubilized and the absorbance was measured at 492 nm in a Power Wave XS plate reader (Bio-Tek Instruments Inc., Winston, NC, USA). For each test compound and cell line, a dose response curve was obtained and the inhibitory concentration of 50% (IC50), corresponding to the concentration of the compounds that inhibited 50% of the net cell growth was calculated as described elsewhere. Doxorubicin was used as a positive control and tested in the same manner.

[2] = system: SF-268 (CNS cancer); assay: SRB cancer cell growth assay, SF-268; type: cell-based, human; design: key to activity class SF-268: highly active; b: moderately active; weakly active; conditions: for IC50: Homo sapiens, SF-268, 48 h exposure, SRB, read-out: IC50 (μg/mL) SF-268
Experimental: as §1, §2, §3

[3] = system: MCF-7 (breast adenocarcinoma); assay: SRB cancer cell growth assay, MCF-7; type: cell-based, human; design: key to activity class MCF-7: highly active; b: moderately active; weakly active; conditions: for IC50: Homo sapiens, MCF7, MCF-7, 48 h exposure, SRB, read-out: IC50 (μg/mL) MCF-7
Experimental: as §1, §2, §3

[4] = system: NCI-H460 (non-small cell lung cancer); assay: SRB cancer cell growth assay, NCI-H460; type: cell-based, human; design: key to activity class NCI-H460: highly active; b: moderately active; weakly active; conditions: for IC50: Homo sapiens, NCI-H460, 48 h exposure, SRB, read-out: IC50 (μg/mL) NCI-H460
Experimental: as §1, §2, §3

| Structure (SMILES) | IC50 [1] [µg/mL] | melting point [°C] | IC50 [2] [µg/mL] | activity class SF-268 [2] | IC50 [3] [µg/mL] | activity class MCF-7 [3] | IC50 [4] [µg/mL] | activity class NCI-H460 [4] |
| --- | --- | --- | --- | --- | --- | --- | --- | --- |
| Cc1cc(C)n(-c2nc(-c3ccc(Cl)cc3Cl)cc(-c3ccc(F)cc3)c2C#N)n1 [Compound 19, 6-(2,4-Dichlorophenyl)-2-(3,5-dimethyl-1H-pyrazol-1-yl)-4-(4-fluorophenyl)nicotinonitrile] | 50.2 ± 10.2 (≈ 115 µM) | 287 to 289 | 10.4 ± 4.19 (≈ 23.8 µM) | a | 75.2 ± 13.9 (≈ 172 µM) | c | 62.3 ± 10.3 (≈ 142 µM) | c |
| N#Cc1c(-c2ccc(F)cc2)cc(-c2ccc(Cl)cc2Cl)nc1NN [Compound 17, 6-(2,4-Dichlorophenyl)-4-(4-fluorophenyl)-2-hydrazinylnicotinonitrile] | 64.1 ± 1.22 (≈ 172 µM) | 223 to 224 | 2.19 ± 0.83 (≈ 5.87 µM) | a | 0.61 ± 0.082 (≈ 1.63 µM) | a | 0.86 ± 0.02 (≈ 2.3 µM) | a |
